According to ChEMBL document CHEMBL1201862, “PubChem BioAssay data set” (2004):
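Test compounds were applied to cells in 96-well plates for 48 hours at 5 doses. Here, GI50 denotes the concentration required for 50% inhibition of growth.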 The source made the active and inactive calls. Cut-off read from the data, not from the text of the source: active = GI50 up to about 1.1 µM and inactive = higher.

What was measured:
Assay in all cases: DTP human tumour cell line panel, 48 h
K562 = tested on: K562
NCI-H522 = tested on: NCI-H522
OVCAR-8 = tested on: OVCAR-8
OVCAR-3 = tested on: OVCAR-3
RXF 393 = tested on: RXF 393
MDA-N = tested on: MDA-N
OVCAR-5 = tested on: OVCAR-5
ACHN = tested on: ACHN
MOLT-4 = tested on: MOLT-4
HCT-116 = tested on: HCT-116
U-251 = tested on: U-251
CAKI-1 = tested on: CAKI-1
T47D = tested on: T47D
TK-10 = tested on: TK-10
Malme-3M = tested on: Malme-3M
IGROV-1 = tested on: IGROV-1
SK-MEL-28 = tested on: SK-MEL-28
BT-549 = tested on: BT-549
NCI-H460 = tested on: NCI-H460

Row | SMILES | GI50 (K562) | GI50 (NCI-H522) | GI50 (OVCAR-8) | GI50 (OVCAR-3) | GI50 (RXF 393) | GI50 (MDA-N) | GI50 (OVCAR-5) | GI50 (ACHN) | GI50 (MOLT-4) | GI50 (HCT-116) | GI50 (U-251) | GI50 (CAKI-1) | GI50 (T47D) | GI50 (TK-10) | GI50 (Malme-3M) | GI50 (IGROV-1) | GI50 (SK-MEL-28) | GI50 (BT-549) | GI50 (NCI-H460)
1 | Cc1ccc(/C=C/c2n[nH]c(N/N=C/c3ccc4c(c3)OCO4)nc2=O)cc1 | 30.1 µM (inactive) | 28.8 µM (inactive) | 15.5 µM (inactive) | 19.6 µM (inactive) | 27.2 µM (inactive) | 25.3 µM (inactive) | > 100 µM (inactive) | 25.2 µM (inactive) | 39.9 µM (inactive) | 21.1 µM (inactive) | 17.6 µM (inactive) | 33.3 µM (inactive) | 36.6 µM (inactive) | 25.9 µM (inactive) | 3.28 µM (inactive) | 20.2 µM (inactive) | 16 µM (inactive) | 17.9 µM (inactive) | 24.9 µM (inactive)
2 | CCOC(=O)c1ccc(C(=O)/C(C(C)=O)=C2\CCCN2C)n1C | 62.7 µM (inactive) | 57.5 µM (inactive) | > 100 µM (inactive) | 99.8 µM (inactive) | 29.5 µM (inactive) | 86.3 µM (inactive) | > 100 µM (inactive) | > 100 µM (inactive) | 23.1 µM (inactive) | 30.6 µM (inactive) | 86.5 µM (inactive) | > 100 µM (inactive) | 15.8 µM (inactive) | > 100 µM (inactive) | > 100 µM (inactive) | > 100 µM (inactive) | > 100 µM (inactive) | > 100 µM (inactive) | > 100 µM (inactive)
3 | Sc1nnc(SCc2ccccc2Cl)c2nc[nH]c12 | > 100 µM (inactive) | > 100 µM (inactive) | > 100 µM (inactive) | > 100 µM (inactive) | > 100 µM (inactive) | > 100 µM (inactive) | > 100 µM (inactive) | > 100 µM (inactive) | > 100 µM (inactive) | > 100 µM (inactive) | > 100 µM (inactive) | > 100 µM (inactive) | > 100 µM (inactive) | > 100 µM (inactive) | > 100 µM (inactive) | > 100 µM (inactive) | > 100 µM (inactive) | > 100 µM (inactive) | > 100 µM (inactive)
4 | CC1(C)[C@@H]2CC[C@]1(C)[C@H](OC(=O)/C=C/c1ccccc1)C2 | 19.9 µM (inactive) | 14.6 µM (inactive) | 20.8 µM (inactive) | < 0.01 µM (active) | 16.9 µM (inactive) | 31.3 µM (inactive) | 19.6 µM (inactive) | 18 µM (inactive) |  | 18.4 µM (inactive) | 17.7 µM (inactive) | 20.2 µM (inactive) | 15.9 µM (inactive) | 36.9 µM (inactive) | 17.3 µM (inactive) | 27.7 µM (inactive) | 19 µM (inactive) | 21.9 µM (inactive) | 29 µM (inactive)
5 | COC(=O)C/N=C1\NC(=S)N(Cc2ccc(OC)cc2)C12CCCC2 | > 100 µM (inactive) | > 100 µM (inactive) | > 100 µM (inactive) | > 100 µM (inactive) | > 100 µM (inactive) | > 100 µM (inactive) | > 100 µM (inactive) | > 100 µM (inactive) | > 100 µM (inactive) | > 100 µM (inactive) | > 100 µM (inactive) | > 100 µM (inactive) | > 100 µM (inactive) |  | > 100 µM (inactive) |  | > 100 µM (inactive) | > 100 µM (inactive) | > 100 µM (inactive)
6 | O=[N+]([O-])c1cc(C(F)(F)F)ccc1S(=O)(=O)N[C@@H]1CCCC[C@H]1NS(=O)(=O)c1ccc(C(F)(F)F)cc1[N+](=O)[O-] |  | 2.45 µM (inactive) | 2.86 µM (inactive) | 2.38 µM (inactive) | 2.45 µM (inactive) | 3.63 µM (inactive) | 56.2 µM (inactive) | 2.7 µM (inactive) |  | 3.43 µM (inactive) | 3.37 µM (inactive) | 2.65 µM (inactive) | 3.13 µM (inactive) | 11 µM (inactive) | 2.49 µM (inactive) | 2.31 µM (inactive) | 5.55 µM (inactive) | 2.23 µM (inactive) | 3.57 µM (inactive)
7 | O=C(/C=C/c1ccc(OCc2cccc(Cl)c2)cc1)NO | 16.6 µM (inactive) | 7.41 µM (inactive) | 6.31 µM (inactive) | 19.2 µM (inactive) | 15.5 µM (inactive) | 18.6 µM (inactive) | 13.9 µM (inactive) | 11.3 µM (inactive) | 2.67 µM (inactive) | 11.5 µM (inactive) | 15 µM (inactive) | 13.5 µM (inactive) | 7.52 µM (inactive) | 20.9 µM (inactive) |  | 11.9 µM (inactive) | 26.2 µM (inactive) | 24.8 µM (inactive) | 15.9 µM (inactive)
8 | Cc1csc(NCc2ccc(Cl)cc2)n1 | 45.7 µM (inactive) | 28.9 µM (inactive) | 56.2 µM (inactive) | 44.7 µM (inactive) | 25.4 µM (inactive) | 57.7 µM (inactive) | > 100 µM (inactive) | 70.1 µM (inactive) | 35.9 µM (inactive) | 38.6 µM (inactive) | 41.3 µM (inactive) | 60.5 µM (inactive) | 28.9 µM (inactive) | > 100 µM (inactive) | 45.1 µM (inactive) | 45.9 µM (inactive) | 85.1 µM (inactive) | 62.7 µM (inactive) | 
9 | C[Si](C)(C)C#Cc1cc(-c2nc3ccccc3s2)ccc1N | 27.8 µM (inactive) | 13.9 µM (inactive) | 16.7 µM (inactive) | 17.3 µM (inactive) | 17.5 µM (inactive) | 17.8 µM (inactive) | 16.5 µM (inactive) | 15.7 µM (inactive) | 29.2 µM (inactive) | 13.7 µM (inactive) | 19.2 µM (inactive) | 14.2 µM (inactive) | 18.7 µM (inactive) | 11.7 µM (inactive) | 3.35 µM (inactive) | < 0.01 µM (active) |  | 18.3 µM (inactive) | 15.9 µM (inactive)
10 | CC(=O)O[C@H]1CC[C@@]2(C)C(=CC[C@@H]3[C@@H]2CC[C@](C)(c2nnc(C)o2)[C@H]3CC#N)C1 | > 100 µM (inactive) | > 100 µM (inactive) | > 100 µM (inactive) | > 100 µM (inactive) | > 100 µM (inactive) | > 100 µM (inactive) | > 100 µM (inactive) | > 100 µM (inactive) | > 100 µM (inactive) | > 100 µM (inactive) | > 100 µM (inactive) | > 100 µM (inactive) | > 100 µM (inactive) | > 100 µM (inactive) | > 100 µM (inactive) | > 100 µM (inactive) |  | > 100 µM (inactive) | 
11 | Cc1ccc([C@@H]2[C@@H](C(=O)c3ccccn3)[C@H](c3ccc(C)cc3)C[C@](O)(c3ccccn3)[C@H]2C(=O)c2ccccn2)cc1 |  | 32.8 µM (inactive) | 3.33 µM (inactive) | 7.8 µM (inactive) | 3.15 µM (inactive) | 3.69 µM (inactive) | 8.93 µM (inactive) | 2.51 µM (inactive) | 2.07 µM (inactive) | 2.89 µM (inactive) | 2.77 µM (inactive) | 3.95 µM (inactive) | 7.73 µM (inactive) | 6.05 µM (inactive) | 8.79 µM (inactive) | 4.53 µM (inactive) | 6.11 µM (inactive) | > 27.4 µM (inactive) | 2.27 µM (inactive)
